The values below come from patent publication US10662164B2, “Non-beta lactam antibiotics” (University of Notre Dame du Lac, priority 2014, dated 2020).

Series [1] has as its system S. aureus ATCC 29213. The series can be described thus: Minimal-bactericidal concentration (MBC) determination. Type of series: cell-based, Staphylococcus aureus. As to conditions: MSSA strain. Here is the method: (§1) The MBC of compound 75b was determined using S. aureus ATCC 29213, S. aureus […], and E. faecium NCTC 7171.
(§2) The MBC of indolyl antibiotic 75b was determined by incubation of 1.5×10^5 cells of S. aureus ATCC29213, S. aureus ATCC 27660, and E. faecium NCTC7171 at MIC, 2×MIC, and 4×MIC. Aliquots of 10 μL (corresponding to 1.5×10^4 cells) were plated on agar plates, incubated for 48 h, and colonies were counted in the presence and absence of […].

Series [2] has as its system S. aureus ATCC 277660. The series is described as above. Type of series: cell-based, Staphylococcus aureus. Here is the method:
as §1, §2

In series [3] the test system is E. faecium NCTC 7171. The series is described as above. Type of series: cell-based, Enterococcus faecium. Here is the method:
as §1, §2

Series [4] can be described thus: Full PK study. Type of series: in vivo, mouse. Here is the method: A full PK study was conducted with indole 75b after iv and oral (po) administration. This compound had the lowest in vitro toxicity and the highest efficacy in the mouse peritonitis infection model.
Female ICR mice (6-8 weeks old, ˜20-g body weight) were used for the PK and peritonitis studies. Animals were purchased from Harlan Laboratories, Inc. (Indianapolis, Ind., USA) and given Teklad 2019 Extruded Rodent Diet and water ad libitum. Mice were maintained in polycarbonate shoebox cages with ¼″ corncob (The Andersons Inc., Maumee, Ohio) and Alpha-dri (Sheperd Specialty Papers, Inc., Richland, Mich.) bedding under 12-h light/12-h dark cycle at 72±2° F.
Antibiotic 75b was dissolved in 10% DMSO/25% Tween-80/65% water at a concentration of 5 mg/mL. Mice (n=3 per time point per route of administration) were administered 100 μL of 75b (equivalent to 20 mg/kg) iv. A separate group of mice was given 100 μL of 75b (equivalent to 20 mg/kg) orally (po). Terminal blood was collected in heparin by cardiac puncture at 2, 5, 10, 20, and 40 min, and at 1, 2, 3, 4, 8, and 24 h after iv administration and at 0.5, 1, 2, 3, 4, 6, 9, 24, and 36 h after po administration. Blood was centrifuged at 1200 g for 10 min to obtain plasma. Plasma samples were stored at −80° C. until analysis.
Plasma ([…], aliquot) was mixed with 100 μL of acetonitrile containing internal standard (final concentration 8 μg/mL). After centrifugation at 10000 g for 10 min, the supernatant was analyzed by ultraperformance liquid chromatography (UPLC) with UV detection at 285 nm. A Waters Acquity UPLC System (Waters Corporation, Milford, Mass., USA), consisting of a binary pump, an autosampler, a column heater, and a photodiode array detector was used. An Acquity UPLC C18 1.7 μm, 2.1 mm i.d.×50 mm column was used. Elution was at 0.5 mL/min with 70% A/30% B for 2 min, followed by a 10-min linear gradient to 10% A/90% B, then 70% A/30% B for 2 min, where A=0.1% formic acid/water and B=0.1% formic acid/acetonitrile. Monitoring was by UV detection at 285 nm. Calibration curves for each compound were prepared in control plasma containing internal standard. The concentrations in the PK samples were obtained using peak area ratio to the internal standard and the calibration curve regression analysis parameters. The methods were linear from 0.01 to 100 μg/mL; coefficients of determination R^2 range from 0.98 to 0.99.
The area under the curve (AUC), clearance (CL), volume of distribution (Vd), and terminal half-life were calculated using Phoenix WinNonlin 6.3 (Certara LP, St Louis, Mo., USA) noncompartmental analysis using uniform weighing. Half-lives were estimated from the linear portion of the initial or terminal phase of the concentration-time data by linear regression, where the slope of the line was the rate constant k and t1/2=ln 2/k.

The nature of series [5]: Full PK study. Type of series: in vivo, mouse. As to conditions: compound 1, oral; dose not given.

Regarding `FC(F)(F)c1ccc(Oc2ccc(-c3noc(-c4ccc5[nH]ccc5c4)n3)cc2)cc1` [Compound 75b, 5-(1H-Indol-5-yl)-3-(4-(4-(trifluoromethyl)phenoxy)phenyl)-1,2,4-oxadiazole], the “MBC relative to MIC” value in series [1] is listed as “the same as the MIC value”. In addition, the “MBC, fold above the MIC” value in series [2] is listed as 2 fold. In addition, in series [3], the “MBC, fold above the MIC” value is given as 2 fold. Moreover, in series [4] (20 mg/kg iv, mice), the AUC0-24 h was determined as 3140 µg·min/mL, the “AUC0-∞” value is 3520 µg·min/mL, the CL is recorded as 5.68 mL/min/kg and the distribution volume (Vd) is recorded as 4.73 L/kg. Further, in series [4] (20 mg/kg iv, mice), the t1/2α result is “t1/2α = 0.54 min” and the “t1/2β (terminal half-life)” value is 9.6 h. Moreover, the “F (oral bioavailability)” value in series [4] (20 mg/kg po vs iv, mice) was determined as 97%. Besides, in series [4] (20 mg/kg po, mice), the AUC0-24 h turned out to be 3060 µg·min/mL, the “AUC0-∞” value came out at 4060 µg·min/mL, the Cmax turned out to be 2340 ng/mL and the time of peak concentration (Tmax) stood at 6 h. In addition, in series [4] (20 mg/kg po, mice), the t1/2dist result is on record as “t1/2dist = 15.9 h” and the “t1/2elim (terminal half-life)” value turned out to be 18.6 h. Also, in series [4] (75b vs compound 1), the “clearance, fold lower than 1” value worked out at 3 fold and the “volume of distribution, fold higher than 1” value is on record as 13 fold.

On to `Oc1ccc(-c2nc(-c3ccc(Oc4ccc(C(F)(F)F)cc4)cc3)no2)cc1` [Compound 1], for which the t1/2abs in series [5] is reported as 3.3 h.
